Test results taken from patent publication US20250179114A1, “Anti-Inflammatory Compound and Use Thereof” (DUALITY BIOLOGICS (SUZHOU) CO., LTD., priority 2021, published 2025).

Columns and labels:
Assay type in all cases: cell-based
[1] = tested on: IFN-α secretion from PBMC under R848 stimulation; assay: R848-induced release of IFNα from human peripheral blood monocytes (PBMC); set-up: unit not given here; conditions: R848 5 μM, 24 h, ELISA
Procedure: (§1) Example 4: Inhibitory Effect of Compounds of the Present Invention on R848-Induced Release of IFNα and TNFα from Human Peripheral Blood Monocytes
(§2) The compounds of the present application were detected for their inhibitory effect on the production of peripheral blood monocytes. The peripheral blood monocytes were treated in vitro with the ligand-drug conjugates at different concentrations, and IFNα and TNFα produced by the peripheral blood monocytes were quantitatively detected after a certain time. The compounds of the present invention were evaluated for in-vitro activity.
(§3) The cryopreserved human PBMC cells were resuspended in a complete medium and counted, and the cell suspension was adjusted to 2.5×10^6 cells/mL with the culture medium. After the suspension was centrifuged to collect the cells the next day, the cells were resuspended using fresh culture medium. Test compounds were diluted to 4-fold final concentration in cell culture medium, 50 μL of the compounds were added into a 96-well cell plate, and 100 μL of diluted cells (800,000 cells/well) were added into each well of the 96-well plate containing the compounds, followed by addition of 50 μL R848 to a final concentration of 5 μM. The cell plate was incubated at 37° C. with 5% CO2 for 24 h. The supernatant was collected, and the TNF-α and IFN-α concentration levels in the supernatant were detected using an ELISA kit. TNF-α concentration assay was performed using Dakewe TNF-α ELISA kit (Cat #1117202), 100 μL of the serially-diluted cytokine standard was added into each well, 100 μL of the above supernatant diluted 10-fold was added into each well, and 100 μL of 1× dilution buffer R was added into each blank control well. 50 μL of biotinylated antibody working solution was added into each well. After mixing well, the plate was covered with a plate-sealing membrane and incubated at room temperature for 3 h. The plate was washed for 3 times: the liquid in each well was discarded, and 300 μL of 1× washing buffer working solution was added into each well; after 1 minute of residence, the liquid in the wells was discarded. The procedure was repeated for 3 times. 100 μL of Streptavidin-HRP working solution was added into each well. The plate was covered with the plate-sealing membrane and incubated at room temperature for 20 min. The plate was washed for 3 times, 100 μL of TMB liquid was added into each well, and the plate was incubated at room temperature (18-25° C.) in the dark for 25 min. The reaction was stopped by adding 100 μL stop solution rapidly to each well. The reading at a wavelength of 450 nm was detected by an M2e instrument within 10 min after termination.
IFN-α concentration assay was performed using Dakewe IFN-α ELISA kit (Cat #1110012), 100 μL of the serially-diluted cytokine standard was added into each well, 100 μL of the above supernatant diluted 2-fold was added into each well, and 100 μL of 1× dilution buffer R was added into each blank control well. 50 μL of biotinylated antibody working solution was added into each well. After mixing well, the plate was covered with a plate-sealing membrane and incubated at room temperature for 3 h. The plate was washed for 3 times: the liquid in each well was discarded, and 300 μL of 1× washing buffer working solution was added into each well; after 1 minute of residence, the liquid in the wells was discarded. The procedure was repeated for 3 times. 100 μL of Streptavidin-HRP working solution was added into each well. The plate was covered with the plate-sealing membrane and incubated at room temperature for 20 min. The plate was washed for 3 times, 100 μL of TMB liquid was added into each well, and the plate was incubated at room temperature (18-25° C.) in the dark for 25 min. The reaction was stopped by adding 100 μL stop solution rapidly to each well. The reading at a wavelength of 450 nm was detected by an M2e instrument within 10 min after termination. […]

[2] = tested on: TNF-α secretion from PBMC under R848 stimulation; assay: R848-induced release of TNFα from human peripheral blood monocytes (PBMC); set-up: unit not given here; conditions: R848 5 μM, 24 h, ELISA
Procedure: as §1, §2, §3
The contents of TNF-α and IFN-α were calculated from the OD450 values (Mean±standard deviation).

glucocorticoid receptor = molecular target: T1, glucocorticoid receptor (Homo sapiens, UniProt P04150); assay: Activity assay of glucocorticoid receptor reporter gene GRE; conditions: HEK293 cells transfected with pGL5 and pBIND-GR; 24 h; Dual-Glo luciferase
T1 construct: host or cells: HEK293
T1 sequence (P04150 1-777): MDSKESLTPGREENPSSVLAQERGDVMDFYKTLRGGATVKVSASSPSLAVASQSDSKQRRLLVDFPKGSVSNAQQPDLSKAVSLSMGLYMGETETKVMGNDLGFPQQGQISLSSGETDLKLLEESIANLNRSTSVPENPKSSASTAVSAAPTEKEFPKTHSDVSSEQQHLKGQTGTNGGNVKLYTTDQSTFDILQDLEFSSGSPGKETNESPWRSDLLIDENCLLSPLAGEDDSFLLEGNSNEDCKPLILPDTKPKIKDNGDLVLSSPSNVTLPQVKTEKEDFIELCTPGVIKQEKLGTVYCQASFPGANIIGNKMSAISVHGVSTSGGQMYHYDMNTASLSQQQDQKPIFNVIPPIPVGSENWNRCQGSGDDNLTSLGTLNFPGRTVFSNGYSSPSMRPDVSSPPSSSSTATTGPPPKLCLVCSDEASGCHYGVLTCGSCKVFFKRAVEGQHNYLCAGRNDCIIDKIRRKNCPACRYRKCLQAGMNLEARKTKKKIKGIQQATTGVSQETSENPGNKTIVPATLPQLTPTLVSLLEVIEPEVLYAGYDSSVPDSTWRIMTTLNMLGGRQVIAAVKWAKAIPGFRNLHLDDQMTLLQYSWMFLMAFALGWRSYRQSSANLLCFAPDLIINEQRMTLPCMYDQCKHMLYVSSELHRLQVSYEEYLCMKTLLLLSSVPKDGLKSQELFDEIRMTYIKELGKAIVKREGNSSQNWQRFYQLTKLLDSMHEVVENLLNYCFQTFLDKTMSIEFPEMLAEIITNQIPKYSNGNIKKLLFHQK
Procedure: HEK293 cells were cultured in DMEM+10% FBS medium in a carbon dioxide incubator humidified at 37° C. with 5% carbon dioxide.
HEK293 cells were digested with trypsin, and the HEK293 cell resuspension was adjusted to 200,000 cell/mL in medium (96 well plate: 100 μL/well).
Transfection reagent mixtures were prepared according to Tables 5a and 5b below, mixed well and left to stand at room temperature for 20 min.
The prepared transfection mixtures were added to 10 mL of the cell density-adjusted resuspension, mixed well by turning the mixtures upside down, and seeded into a 96-well plate at a volume of 100 μL/well.
The 96-well plate was incubated in a humidified incubator at 37° C. with 5% carbon dioxide for 24 h.
The test plate was placed back into the incubator and incubated for 24 h.
The test plate was detected using the Dual-Glo Luciferase Assay System kit from Promega, and the fluorescence signal of Firefly Luciferase and the fluorescence signal of Renilla Luciferase were read using Enspire, respectively.
The final measurement value was a normalized value “F/R” obtained by dividing the Firefly Luciferase fluorescent signal by the Renilla Luciferase fluorescent signal.
The data were copied and pasted into Excel, and the activation rate was obtained through an equation.
The data were imported into MS Excel and subjected to curve fitting by using XLFit excel add-in version 5.4.0.8 to obtain an EC50 value.
Y is the agonism and X is the concentration of the compound.

Row | Structure (SMILES) | IFN-α content in supernatant (Mean±standard deviation) ([1]; compound 4 nM) | IFN-α content in supernatant (Mean±standard deviation) ([1]; compound 20 nM) | IFN-α content in supernatant (Mean±standard deviation) ([1]; compound 100 nM) | TNF-α content in supernatant (Mean±standard deviation) ([2]; compound 4 nM) | TNF-α content in supernatant (Mean±standard deviation) ([2]; compound 20 nM) | TNF-α content in supernatant (Mean±standard deviation) ([2]; compound 100 nM) | EC50 (glucocorticoid receptor) [nM]
1 | C[C@]12C=CC(=O)C=C1CC[C@@H]1[C@@H]2[C@@H](O)C[C@@]2(C)[C@H]1C[C@H]1O[C@@H](c3ccn(Cc4cccc(N)c4)c3)O[C@]12C(=O)CO [Compound 1] | 228.3 ± 0.2 | 0 ± 0 | 0 ± 0 | 1187.6 ± 87.4 | 611.9 ± 10.7 | 592.8 ± 92.1 | 
2 | C[C@]12C=CC(=O)C=C1CC[C@@H]1[C@@H]2[C@@H](O)C[C@@]2(C)[C@H]1C[C@H]1O[C@@H](c3ccn(Cc4ccc(N)cc4)c3)O[C@]12C(=O)CO [Compound 2] | 108 ± 11 | 11.1 ± 11.1 | 0 ± 0 | 898.3 ± 27.7 | 584.4 ± 171.1 | 623.3 ± 238.4 | 0.15
